Measurements published in patent US7829563B2, “Aminoamides as orexin antagonists” (Hoffmann-La Roche Inc., priority 2007, dated 2010).
Counter-ions that a name gives are not always drawn.

Biological target: T1, human orexin-2 (hOX2) receptors (Homo sapiens, UniProt O43614)
T1 construct: expressed in transfected cells
T1 sequence (O43614 1-444): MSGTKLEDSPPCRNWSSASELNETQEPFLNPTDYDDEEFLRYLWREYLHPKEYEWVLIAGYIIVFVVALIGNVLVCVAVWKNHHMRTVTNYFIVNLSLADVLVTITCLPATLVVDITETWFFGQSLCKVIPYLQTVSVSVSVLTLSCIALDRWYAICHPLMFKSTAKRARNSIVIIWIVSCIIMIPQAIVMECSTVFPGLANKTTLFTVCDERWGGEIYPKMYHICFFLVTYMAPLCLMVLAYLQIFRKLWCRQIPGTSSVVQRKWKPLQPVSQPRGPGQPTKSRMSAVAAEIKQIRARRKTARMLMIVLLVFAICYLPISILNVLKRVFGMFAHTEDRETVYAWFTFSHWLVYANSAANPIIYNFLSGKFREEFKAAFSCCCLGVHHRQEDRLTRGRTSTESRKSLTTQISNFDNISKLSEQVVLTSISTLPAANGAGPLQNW
Assay: Intracellular Ca2+ mobilization assay (FLIPR), antagonism of orexin-A
Assay type: cell-based
Conditions: CHO(dHFr−) cells stably expressing hOX2; orexin-A at EC80 as agonist; Kb=IC50/(1+[A]/EC50); read-out: Kb (μM) OX2R (human)
Procedure, shortened: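 Fluo-4-loaded CHO(dHFr−) cells stably expressing hOX2 were pre-incubated 25 min at 37° C with antagonist (11 concentrations, 0.0001-10 μM), then stimulated with orexin-A at daily-determined EC80. Peak FLIPR fluorescence was fitted to the Hill equation for IC50, and Kb was derived as IC50/(1+[A]/EC50).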

Compound | Kb
CNC(=O)[C@H](N[C@@H](CCc1ccc(C(F)(F)F)nc1)c1ccc(F)c(C)c1)c1ccc(C)cc1 (racemic) [Example 334, (R,S)-2-[(S,R)-1-(4-Fluoro-3-methyl-phenyl)-3-(6-trifluoromethyl-pyridin-3-yl)-propylamino]-N-methyl-2-p-tolyl-acetamide] | 0.01 µM
CNC(=O)[C@H](N[C@@H](CCc1ccc(Cl)cc1)c1ccc(OC)c(OC)c1)c1ccc(Cl)cc1 (racemic) [Example 319, (R,S)-2-(4-Chloro-phenyl)-2-[(S,R)-3-(4-chloro-phenyl)-1-(3,4-dimethoxy-phenyl)-propylamino]-N-methyl-acetamide] | 0.0086 µM
COc1ccc(C(CCc2ccc(C(F)(F)F)cc2)N[C@@H](C(=O)NCC2CC2)c2ccccc2)cc1OC (single isomer, unassigned) [Example 16, (R)-N-Cyclopropylmethyl-2-[(R or S)-1-(3,4-dimethoxy-phenyl)-3-(4-trifluoromethyl-phenyl)-propylamino]-2-phenyl-acetamide] | 0.0142 µM
CNC(=O)[C@H](N[C@@H](CCc1ccc(C)cc1)c1ccc(OC)c(OC)c1)c1ccccc1 (racemic) [Example 209, (S,R)-2-[(R,S)-1-(3,4-Dimethoxy-phenyl)-3-p-tolyl-propylamino]-N-methyl-2-phenyl-acetamide] | 0.0024 µM
CNC(=O)[C@H](N[C@@H](CCc1ccc(C(F)(F)F)cc1)c1ccc2c(c1)OCCN2C)c1ccccc1 (racemic) [Example 78, (S,R)—N-Methyl-2-[(R,S)-1-(4-methyl-3,4-dihydro-2H-benzo[1,4]oxazin-7-yl)-3-(4-trifluoromethyl-phenyl)-propylamino]-2-phenyl-acetamide] | 0.0127 µM
CNC(=O)[C@H](N[C@@H](CCc1ccc(C(F)(F)F)nc1)c1ccc(Cl)c(C)c1)c1ccccc1 (racemic) [Example 244, (S,R)-2-[(R,S)-1-(4-Chloro-3-methyl-phenyl)-3-(6-trifluoromethyl-pyridin-3-yl)-propylamino]-N-methyl-2-phenyl-acetamide] | 0.0145 µM
CNC(=O)[C@H](N[C@@H](CCc1ccc(C)nc1)c1ccc(F)c(C)c1)c1ccccc1 [Example 262, (R)-2-[(S)-1-(4-Fluoro-3-methyl-phenyl)-3-(6-methyl-pyridin-3-yl)-propylamino]-N-methyl-2-phenyl-acetamide] | 0.0173 µM
CNC(=O)[C@H](N[C@@H](CCc1ccc(Cl)cc1)c1ccc(OC)c(OC)c1Cl)c1ccccc1 [Example 98, (R)-2-[(S)-1-(2-Chloro-3,4-dimethoxy-phenyl)-3-(4-chloro-phenyl)-propylamino]-N-methyl-2-phenyl-acetamide] | 0.0014 µM
CNC(=O)[C@@H](N[C@H](CCc1ccc(C(F)(F)F)cc1)c1cccc(OC)c1)c1ccccc1 [Example 222, (S)-2-[(R)-1-(3-Methoxy-phenyl)-3-(4-trifluoromethyl-phenyl)-propylamino]-N-methyl-2-phenyl-acetamide hydrochloride] | 0.0171 µM
CNC(=O)[C@H](N[C@@H](CCc1ccc(C(F)(F)F)nc1)c1cc(C)ccc1F)c1ccc(F)cc1 [Example 107, (R)-2-[(S)-1-(2-Fluoro-5-methyl-phenyl)-3-(6-trifluoromethyl-pyridin-3-yl)-propylamino]-2-(4-fluoro-phenyl)-N-methyl-acetamide] | 0.0124 µM
CNC(=O)[C@H](NC(CCc1ccc(C(F)(F)F)cc1)c1ccc(OC)c(OC)c1)c1ccccc1 (single isomer, unassigned) [Example 6, (R)-2-[(S or R)-1-(3,4-Dimethoxy-phenyl)-3-(4-trifluoromethyl-phenyl)-propylamino]-N-methyl-2-phenyl-acetamide] | 0.0017 µM
CNC(=O)[C@H](N[C@@H](CCc1ccc(C(F)(F)F)cc1)c1ccc(OC)c(OC)c1)c1ccc(Cl)cc1 [Example 94, (R)-2-(4-Chloro-phenyl)-2-[(S)-1-(3,4-dimethoxy-phenyl)-3-(4-trifluoromethyl-phenyl)-propylamino]-N-methyl-acetamide] | 0.0051 µM
Cc1cc([C@H](CCc2ccc(C(F)(F)F)nc2)N[C@@H](C(N)=O)c2ccccc2)ccc1F [Example 353, (R)-2-[(S)-1-(4-Fluoro-3-methyl-phenyl)-3-(6-trifluoromethyl-pyridin-3-yl)-propylamino]-2-phenyl-acetamide] | 0.0057 µM
CNC(=O)[C@H](N[C@@H](CCc1ccc(C)cc1)c1ccc(F)c(C)c1)c1ccccc1 (racemic) [Example 365, (R,S)-2-[(S,R)-1-(4-Fluoro-3-methyl-phenyl)-3-p-tolyl-propylamino]-N-methyl-2-phenyl-acetamide] | 0.0124 µM
CNC(=O)[C@H](N[C@@H](CCc1ccc(Cl)cc1)c1ccc(OC)c(OC)c1)c1ccccc1 (single isomer, unassigned) [Example 140] | 0.0014 µM

Second part, the compound after the results:

Kb | Compound
0.017 µM | CNC(=O)C(NC(CCc1ccc(C(F)(F)F)cc1)c1sc(C)nc1C)c1ccccc1 (stereo not shown) [Example 93, 2-[1-(2,4-Dimethyl-thiazol-5-yl)-3-(4-trifluoromethyl-phenyl)-propylamino]-N-methyl-2-phenyl-acetamide]
0.0086 µM | CNC(=O)[C@H](N[C@@H](CCc1ccc(C(F)(F)F)cc1)c1ccc(OC)c(OC)c1)c1ccc(F)cc1 [Example 95, (R)-2-[(S)-1-(3,4-Dimethoxy-phenyl)-3-(4-trifluoromethyl-phenyl)-propylamino]-2-(4-fluoro-phenyl)-N-methyl-acetamide]
0.0148 µM | CNC(=O)[C@H](N[C@@H](CCc1ccc(C(F)(F)F)nc1)c1cc(Cl)ccc1OC)c1ccc(F)cc1 [Example 104, (R)-2-[(S)-1-(5-Chloro-2-methoxy-phenyl)-3-(6-trifluoromethyl-pyridin-3-yl)-propylamino]-2-(4-fluoro-phenyl)-N-methyl-acetamide]
0.0155 µM | CNC(=O)[C@H](N[C@@H](CCc1ccc(OC)cc1)c1cccnc1OC)c1ccccc1 (racemic) [Example 135, (S,R)-2-[(R,S)-3-(4-Methoxy-phenyl)-1-(2-methoxy-pyridin-3-yl)-propylamino]-N-methyl-2-phenyl-acetamide]
0.0059 µM | CNC(=O)[C@H](N[C@@H](CCc1ccc(Cl)cc1)c1ccc(F)c(C)c1)c1ccccc1 [Example 392, (R)-2-[(S)-3-(4-Chloro-phenyl)-1-(4-fluoro-3-methyl-phenyl)-propylamino]-N-methyl-2-phenyl-acetamide]
0.0171 µM | CNC(=O)[C@H](N[C@H](CCc1ccc(C(F)(F)F)nc1)c1ccc(Cl)c(OC)c1)c1ccc(F)cc1 (racemic) [Example 223, (S,R)-2-[(S,R)-1-(4-Chloro-3-methoxy-phenyl)-3-(6-trifluoromethyl-pyridin-3-yl)-propylamino]-2-(4-fluoro-phenyl)-N-methyl-acetamide]
0.0081 µM | CNC(=O)[C@H](N[C@@H](CCc1ccc(C(F)(F)F)cc1)c1cccnc1OC)c1ccccc1 (racemic) [Example 179, (S,R)-2-[(R,S)-1-(2-Methoxy-pyridin-3-yl)-3-(4-trifluoromethyl-phenyl)-propylamino]-N-methyl-2-phenyl-acetamide]
0.0068 µM | CNC(=O)[C@H](N[C@@H](CCc1ccc(Cl)cc1)c1ccc(OC)c(OC)c1Cl)c1ccccc1 (racemic) [Example 40, (S,R)-2-[(R,S)-1-(2-Chloro-3,4-dimethoxy-phenyl)-3-(4-chloro-phenyl)-propylamino]-N-methyl-2-phenyl-acetamide]
0.0099 µM | CNC(=O)[C@H](N[C@@H](CCc1ccc(C(F)(F)F)cc1)c1ccc(Cl)c(OC)c1)c1ccccc1 (racemic) [Example 177, (S,R)-2-[(R,S)-1-(4-Chloro-3-methoxy-phenyl)-3-(4-trifluoromethyl-phenyl)-propylamino]-N-methyl-2-phenyl-acetamide]
0.0093 µM | CNC(=O)[C@H](N[C@@H](CCc1ccc(C(F)(F)F)nc1)c1ccc2c(c1)CCCC2)c1ccc(F)cc1 (racemic) [Example 57, (S,R)-2-(4-Fluoro-phenyl)-N-methyl-2-[(R,S)-1-(5,6,7,8-tetrahydro-naphthalen-2-yl)-3-(6-trifluoromethyl-pyridin-3-yl)-propylamino]-acetamide]
0.0142 µM | CNC(=O)[C@H](NC(CCc1ccc(C(F)(F)F)cc1)c1ccc(OC)c(OC)c1)c1ccccc1 (single isomer, unassigned) [Example 7, (R)-2-[(S or R)-1-(3,4-Dimethoxy-phenyl)-3-(4-trifluoromethyl-phenyl)-propylamino]-N-methyl-2-phenyl-acetamide]
0.0178 µM | CCNC(=O)[C@H](N[C@@H](CCc1ccc(C(F)(F)F)nc1)c1ccc(F)c(C)c1)c1ccccc1 (racemic) [Example 340, (R,S)—N-Ethyl-2-[(S,R)-1-(4-fluoro-3-methyl-phenyl)-3-(6-trifluoromethyl-pyridin-3-yl)-propylamino]-2-phenyl-acetamide]
0.0085 µM | CNC(=O)[C@H](N[C@@H](CCc1ccc(C(F)(F)F)nc1)c1ccc(F)c(OC)c1)c1ccccc1 (racemic) [Example 232, (S,R)-2-[(R,S)-1-(4-Fluoro-3-methoxy-phenyl)-3-(6-trifluoromethyl-pyridin-3-yl)-propylamino]-N-methyl-2-phenyl-acetamide]
